Assays:
CD47 = experiment: Western analysis of CD47 in human aortic VSMC; format: cell-based; conditions: 48 hours
Protocol: Human aortic VSMC were plated onto 12-well culture plates (Nunc) at a density of 5×10^4 cells/well in SM-GM+2% FCS and cultured until approximately 90% confluent. A translation-blocking antisense morpholino oligonucleotide complementary to human and murine CD47 ([…]; SEQ ID NO: 21) and a five-base mismatch control (CGTgACAGcCAcGACCgACTGCgCA; SEQ ID NO: 22) were obtained from GeneTools (Philomath, Oreg.). Cultured cells were treated as per the manufacturer's recommendation with morpholinos (10 μM) and utilized within 48 hours of treatment.
Murine VSMC were plated in 12-well culture plates (5×10^4 cells/well) (Nunc) in growth medium and weaned over 48 h of additives and serum and then treated in basic medium with 0.1% BSA. Cells were washed twice with PBS and lysed in 1×SDS sample buffer containing 10 μg/mL leupeptin, 10 μg/mL aprotinin, 1 mM Na3VO4, and 40 mM NaF. Lysates prepared in the SDS sample buffer described above were electrophoresed in 4-12% BisTris NuPAGE gels and transferred to PVDF membranes prior to immunoblotting using a mouse monoclonal CD47 antibody, clone B6H12 (Lab Visions, Fremont, Calif.).

[1] = tested on: murine WT and TSP1-null platelets; experiment: cGMP in murine platelets; format: cell-based, mouse; conditions: WT and null platelets, TSP1 2.2 nM
Protocol: After induction of general anesthesia with isoflurane 2%, age and sex matched C57BL/6 WT and TSP1-null mice underwent cardiac puncture. Blood was aspirated into 1 cc syringes with a 25 gauge needle containing 100 μl heparin (Heparin Lock Flush, Abbott, Chicago, Ill.), mixed with 100 μl 3% ACD and centrifuged in 1.2 ml S-Monovette separation tubes (Sarstedt, Germany). PRP was aspirated off, centrifuged, and the resulting platelet pellet was resuspended in 200 μl of Tyrode's buffer.
Fresh human platelets at 2×10^5 platelets/μl in Tyrode's buffer or PRP were pre-incubated with the indicated agents for 15 minutes and then challenged with DEA/NO for the indicated time interval at room temperature and total cGMP determined via immunoassay (Amersham, GE Healthcare, Buckinghamshire, UK). Murine WT and TSP1-null platelets were treated with DEA/NO and cGMP flux measured.

murine ASMC (CD47 null) = experiment: Murine ASMC proliferation; format: cell-based, mouse; conditions: CD47 null MASMC
Protocol: Murine ASMC were obtained from aortic segments harvested sterilely from C57B1/6 CD47 null or CD36 null mice as described (Ray et al., Methods Cell Sci 23:185-188, 2001) and cultured in SM-GM (Cambrex)+20% FCS. In the case of CD36 null cells, culture flasks were pre-coated with 1% gelatin prior to cell plating. Wild type C57B1/6 ASMC cultures were prepared as previously described (Isenberg et al., Matrix Biol 24:110-123, 2005). Cell culture purity was determined by immunohistochemistry staining for α-smooth muscle actin. Cells were used within passage 1 to 4 to minimize overgrowth of other cell types.
Proliferation of vascular cells was measured with a non-radioactive colorimetric assay (CellTiter 96, Promega, Madison, Wis.). Briefly, to each well of a 96-well culture plate (Nunc, Denmark) 5×10^3 cells were suspended in 100 μl of culture medium with indicated treatments and incubated for 72 hours at 37° C. in a 5% CO2 atmosphere. Following incubation 20 μl of tetrazolium compound/solubilization agent was added and incubation continued for 4 hours under the same conditions. The plate was then read on a MR580 Microelisa Auto Reader (Dynatech) at a wavelength of 490 nm. Appropriate zero time controls were run for all assays and the optical density readings obtained then subtracted from those obtained at 72 hours.

Substance | CD47 protein (Western) (CD47) | NO-driven flux in platelet cGMP [1] | NO-stimulated proliferation (murine ASMC (CD47 null))
CGTCACAGGCAGGACCCACTGCCCA (all phosphorodiamidate morpholino (PMO)) [CD47 morpholino] | dose dependent decrease in CD47 protein |  | 
TSP1: thrombospondin-1 prepared from human platelets |  | decreased the NO-driven flux in platelet cGMP | did not inhibit
